Laboratory results published in patent US20120183631A1, “INGREDIENT EXTRACTED FROM POUZOLZIA ZEYLANICA (L.) BENN AND ITS ANTI-ACNE FORMULA” (priority 2011, published 2012).

System: endotoxin
Type: cell-based

SMILES: COc1cc(/C=C/C(=O)CC(=O)/C=C/c2ccc(O)c(OC)c2)ccc1O [Curcumin]
- Inhibition of endotoxin (in words): not restrained
